Laboratory results published in article PMC13185819, “De Novo Multi‐Mechanism Antimicrobial Peptide Design via Multimodal Deep Learning” (Advanced Science, 2026).
Converted amounts (≈) assume the structure as drawn. Residues, ends and D or L forms follow the SMILES beside them.

How the values were obtained:
[1] = test system: K. pneumoniae 7713; type: cell-based
Method: (§1) Standard strains included S. aureus ATCC33592, S. aureus CICC25138, and Salmonella enterica ATCC14028, which were purchased from the China Center of Industrial Culture Collection (CICC). Standard strains including E.coli CMCC44102, Salmonella enterica CMCC50071, and S. aureus CMCC26003 were purchased from the National Center for Medical Culture Collections (CMCC). […] All experiments using the above strains were carried out in a BSL‐2 laboratory. The clinical laboratory of Qilu Hospital detected bacterial resistance to various antibiotics. All strains were streaked on Nutrient Broth (NB) agar medium and incubated overnight at 37°C.
(§2) The antimicrobial activity of the peptides was examined in sterile 96‐well plates using the broth microdilution according to the CLSI standard. The colonies were suspended in saline solution, the turbidity was adjusted to McFarland 0.5 to reach a bacterial concentration of 10^8 CFU/mL, and again diluted 100 times for the inhibition test. Then, 50 µL of bacterial suspension at 1 × 10^6 CFU/mL was incubated with the same volume of different concentrations of peptide solution [serial twofold dilutions in Mueller–Hinton Broth (Hopebio)]. […] All experiments were performed with three independent replicates.

[2] = test system: S. aureus ATCC33592; type: cell-based
Method: as §1, §2

[3] = test system: E. faecium 21; type: cell-based
Method: as §1, §2

[4] = test system: S. aureus CMCC26003; type: cell-based
Method: as §1, §2

[5] = test system: E.coli 208; type: cell-based
Method: as §1, §2

[6] = test system: S. aureus CICC25138; type: cell-based
Method: as §1, §2

[7] = test system: E. faecium 1042; type: cell-based
Method: as §1, §2

[8] = test system: E.coli CMCC44102; type: cell-based
Method: as §1, §2

[9] = test system: E.coli 110; type: cell-based
Method: as §1, §2

[10] = test system: human red blood cells (hRBCs); experiment: Hemolysis assay; type: cell-based; settings: human red blood cells 8% (v/v) in PBS pH 7.4, 1 h, 37°C, absorbance 570 nm; linear interpolation
Method: Human red blood cells (hRBCs) were purchased from Xiamen Immocell Biotechnology Co., Ltd. For the hemolysis test, fresh human red blood cells (hRBCs) were washed three times with PBS (35 mM phosphate buffer, 0.15 M NaCl, pH 7.4) by centrifugation for 5 min at 1000 × g and resuspended in PBS. Then, 50 µL peptide solutions (serial twofold dilutions in PBS) were added to 100 µL of hRBC suspension [8% (v/v) in final] in PBS and incubated for 1 h at 37°C. Samples were centrifuged at 1000 × g for 5 min, and hemoglobin release was monitored by measuring the supernatant absorbance at 570 nm in a flat‐bottom 96‐well plate (Servicebio). hRBCs in PBS or 0.1% Triton X‐100 were used as the negative and positive controls, respectively.

[11] = test system: mice; experiment: Systemic safety, intraperitoneal injection; type: in vivo, C57BL/6J mice; settings: intraperitoneal injection, 60 mg/kg, 96 h, n = 8
Method: The 10‐week‐old female C57BL/6J mice were randomly divided into three groups (n = 8 for each group). […] Mouse survival was monitored for 96 h. For pathologic analysis, mouse liver and kidneys were obtained by surgery for hematoxylin‐eosin (HE) staining after treatment with 40 mg/kg QLX‐3DV‐1 and QLX‐3DV‐2 for 12 h.

[12] = test system: S. aureus CMCC26003; experiment: Drug resistance assay, serial passaging; type: cell-based; settings: sub-MIC (1/2 × MIC), n = 3; for passages after which S. aureus developed resistance: passaged every 24 h, resistance = greater than fourfold MIC increase
Method: For comparison, the development of resistance to the clinically relevant antibiotics clindamycin (Macklin) and vancomycin (Macklin) was determined. The evolution of resistance by S. aureus CMCC26003 to antibiotics and the peptide was monitored for 20 days of serial passaging in liquid NB. Cells were passaged every 24 h. Briefly, 1 mL of bacterial suspension (1 × 10^6 CFU/mL) was incubated with antibiotics or peptide solution at half the minimal inhibitory concentration at 37°C, 200 rpm. After each incubation period, a new inoculum of 10^6 cells was prepared for inoculation of the following passage containing fresh medium and increased doses of the antimicrobial agent. During the 20 days of serial passaging, the minimum inhibitory concentration of antibiotics or peptides to each generation of cells was determined. The MIC determination method was as previously described. The development of bacterial resistance was defined as a greater than fourfold increase in MICs compared to the initial MICs.

`CC[C@H](C)[C@H](NC(=O)[C@H](CCSC)NC(=O)[C@H](Cc1c[nH]c2ccccc12)NC(=O)[C@@H](N)CCCCN)C(=O)N[C@@H](CCCCN)C(=O)N[C@@H](Cc1c[nH]c2ccccc12)C(=O)N1CCC[C@H]1C(=O)N[C@@H](CO)C(=O)N[C@@H](CC(N)=O)C(=O)N[C@@H](Cc1c[nH]c2ccccc12)C(=O)N[C@@H](Cc1ccccc1)C(=O)N[C@H](C(=O)N[C@@H](CCSC)C(=O)N[C@@H](CC(C)C)C(N)=O)[C@@H](C)O` [QLX-227-1] (H-KWMIKWPSNWFTML-NH2) was tested, and the “MIC (μg/mL) K. pneumoniae 7713” value [1] was 64 µg/mL (≈ 34.3 µM), the “MIC (μg/mL) S. aureus ATCC33592” value [2] was 64 µg/mL (≈ 34.3 µM) and the “MIC (μg/mL) E. faecium 21” value [3] was 16 µg/mL (≈ 8.57 µM). The “MIC (μg/mL) S. aureus CMCC26003” value [4] was 32 µg/mL (≈ 17.1 µM), the “MIC (μg/mL) E.coli 208” value [5] was 16 µg/mL (≈ 8.57 µM) and the “MIC (μg/mL) S. aureus CICC25138” value [6] was 64 µg/mL (≈ 34.3 µM). For the same molecule, the “MIC (μg/mL) E. faecium 1042” value [7] was 32 µg/mL (≈ 17.1 µM), the “MIC (μg/mL) E.coli CMCC44102” value [8] was 32 µg/mL (≈ 17.1 µM) and the “MIC (μg/mL) E.coli 110” value [9] was 32 µg/mL (≈ 17.1 µM). For the same molecule, the “25% hemolytic concentration (HC25)” value [10] was 100.92 µg/mL.
With `CC(=O)N[C@@H](CC(C)C)C(=O)N[C@@H](CCCCN)C(=O)N[C@@H](CCCNC(=N)N)C(=O)N[C@H](C(=O)N[C@@H](Cc1c[nH]c2ccccc12)C(=O)N[C@@H](CCCCN)C(=O)N[C@@H](CCCNC(=N)N)C(=O)N[C@H](C(=O)N[C@@H](Cc1ccccc1)C(=O)N[C@@H](CCCCN)C(=O)N[C@@H](CC(C)C)C(=O)N[C@@H](CC(C)C)C(=O)N[C@@H](CCCCN)C(=O)N[C@@H](CCCNC(=N)N)C(=O)N[C@@H](Cc1ccc(O)cc1)C(=O)N[C@@H](Cc1c[nH]c2ccccc12)C(=O)N[C@@H](CCCNC(=N)N)C(=O)N[C@@H](CCC(N)=O)C(=O)N[C@@H](CC(C)C)C(=O)N[C@@H](CCCCN)C(=O)N[C@@H](CCCCN)C(=O)N1CCC[C@H]1C(=O)N[C@H](C(=O)N[C@@H](CCCNC(=N)N)C(N)=O)C(C)C)C(C)C)C(C)C` [SAAP-148, reference compound] (Ac-LKRVWKRVFKLLKRYWRQLKKPVR-NH2) the “25% hemolytic concentration (HC25)” value [10] was 26.89 µg/mL and the “survival rate over 96 h” value [11] was 50%.
With `CCC[C@@H]1C[C@@H](C(=O)N[C@@H]([C@H]2O[C@H](SC)[C@H](O)[C@@H](O)[C@H]2O)[C@H](C)Cl)N(C)C1` [clindamycin] the “passages after which S. aureus developed resistance” value [12] was 15 passages.
For `CN[C@H](CC(C)C)C(=O)N[C@H]1C(=O)N[C@@H](CC(N)=O)C(=O)N[C@H]2C(=O)N[C@H]3C(=O)N[C@H](C(=O)N[C@H](C(=O)O)c4cc(O)cc(O)c4-c4cc3ccc4O)[C@H](O)c3ccc(c(Cl)c3)Oc3cc2cc(c3O[C@@H]2O[C@H](CO)[C@@H](O)[C@H](O)[C@H]2O[C@H]2C[C@](C)(N)[C@H](O)[C@H](C)O2)Oc2ccc(cc2Cl)[C@H]1O` [vancomycin], the “factor of decrease in susceptibility by the 20th passage” value ([12]; 20 passages) was 64 and the “passages after which S. aureus developed resistance” value [12] was 18 passages.
